Results as given in ChEMBL document CHEMBL1759880, “A facile, one-pot synthesis, characterization and antimicrobial activity of o-hydroxy anilide derivatives and 1-substituted-1,3-dicyclohexylurea analogs of long chain carboxylic acids” (2011).
In brackets after ≈: the same amount, converted by molar mass.

What was measured:
[1] = test system: Staphylococcus aureus; test: Antibacterial activity against Staphylococcus aureus ATCC 25923 after 24 hrs by broth dilution technique; format: functional; conditions: ATCC-25923, 24 h
[2] = test system: Escherichia coli; test: Antibacterial activity against Escherichia coli ATCC 25922 after 24 hrs by broth dilution technique; format: functional; conditions: ATCC-25922, 24 h
[3] = test system: Escherichia coli; test: Antibacterial activity against Escherichia coli ATCC 25922 after 24 hrs by disc diffusion method; format: functional
[4] = test system: Klebsiella pneumoniae; test: Antibacterial activity against Klebsiella pneumoniae clinical isolate after 24 hrs by disc diffusion method; format: functional
[5] = test system: Streptococcus pyogenes; test: Antibacterial activity against Streptococcus pyogenes clinical isolate after 24 hrs by broth dilution technique; format: functional
[6] = test system: Klebsiella pneumoniae; test: Antibacterial activity against Klebsiella pneumoniae clinical isolate after 24 hrs by broth dilution technique; format: functional
[7] = test system: Streptococcus pyogenes; test: Antibacterial activity against Streptococcus pyogenes clinical isolate after 24 hrs by disc diffusion method; format: functional
[8] = test system: Staphylococcus aureus; test: Antibacterial activity against Staphylococcus aureus ATCC 25923 after 24 hrs by disc diffusion method; format: functional
[9] = test system: Candida albicans; test: Antifungal activity against Candida albicans after 3 to 4 days by disc diffusion method; format: functional
[10] = test system: Aspergillus fumigatus; test: Antifungal activity against Aspergillus fumigatus after 3 to 4 days by disc diffusion method; format: functional
[11] = test system: Talaromyces marneffei; test: Antifungal activity against Penicillium marneffei after 3 to 4 days by disc diffusion method; format: functional
[12] = test system: Trichophyton mentagrophytes; test: Antifungal activity against Trichophyton mentagrophytes after 3 to 4 days by disc diffusion method; format: functional
[13] = test system: Candida albicans; test: Antifungal activity against Candida albicans after 48 hrs by broth dilution technique; format: functional
[14] = test system: Aspergillus fumigatus; test: Antifungal activity against Aspergillus fumigatus after 48 hrs by broth dilution technique; format: functional
[15] = test system: Talaromyces marneffei; test: Antifungal activity against Penicillium marneffei after 48 hrs by broth dilution technique; format: functional
[16] = test system: Trichophyton mentagrophytes; test: Antifungal activity against Trichophyton mentagrophytes after 48 hrs by broth dilution technique; format: functional
[17] = test system: Pseudomonas aeruginosa; test: Antibacterial activity against Pseudomonas aeruginosa ATCC 27853 after 24 hrs by disc diffusion method
[18] = test system: Pseudomonas aeruginosa; test: Antibacterial activity against Pseudomonas aeruginosa ATCC 27853 after 24 hrs by broth dilution technique; conditions: ATCC-27853, 24 h

| Compound | MIC [1] | MIC [2] | MIC [5] | MIC [13] | MIC [18] | MBC [1] | MBC [2] | diameter of the inhibition zone (DIZ) [3] | diameter of the inhibition zone (DIZ) [4] | MBC [5] | MBC [6] | diameter of the inhibition zone (DIZ) [7] | diameter of the inhibition zone (DIZ) [8] | diameter of the inhibition zone (DIZ) [9] | diameter of the inhibition zone (DIZ) [10] | diameter of the inhibition zone (DIZ) [11] | diameter of the inhibition zone (DIZ) [12] | MFC [13] | diameter of the inhibition zone (DIZ) [17] | MBC [18] | also measured |
| --- | --- | --- | --- | --- | --- | --- | --- | --- | --- | --- | --- | --- | --- | --- | --- | --- | --- | --- | --- | --- | --- |
| CCCCCCCCCCCCCCCCCC(=O)Nc1ccccc1O | 100 µg/mL (≈ 266 µM) | 100 µg/mL (≈ 266 µM) | 50 µg/mL (≈ 133 µM) | 12.5 µg/mL (≈ 33.3 µM) | 100 µg/mL (≈ 266 µM) | 100 µg/mL (≈ 266 µM) | 100 µg/mL (≈ 266 µM) | 12.4 mm | 11.4 mm | 100 µg/mL (≈ 266 µM) | 100 µg/mL (≈ 266 µM) | 10.8 mm | 10.5 mm | 14.7 mm | 12.4 mm | 10.2 mm | 10.5 mm | 25 µg/mL (≈ 66.6 µM) | 11.9 mm | 100 µg/mL (≈ 266 µM) | MIC [6]: 50 µg/mL (≈ 133 µM); MFC [14]: 50 µg/mL (≈ 133 µM); MIC [14]: 25 µg/mL (≈ 66.6 µM); MFC [15]: 100 µg/mL (≈ 266 µM); MIC [15]: 50 µg/mL (≈ 133 µM); MFC [16]: 100 µg/mL (≈ 266 µM); MIC [16]: 50 µg/mL (≈ 133 µM) |
| C=CCCCCCCCCC(=O)Nc1ccccc1O | 100 µg/mL (≈ 363 µM) | – | – | 50 µg/mL (≈ 182 µM) | – | – | – | 12.7 mm | – | – | 100 µg/mL (≈ 363 µM) | 11.1 mm | 10.9 mm | 12.5 mm | 9.2 mm | 8.9 mm | 8.3 mm | 100 µg/mL (≈ 363 µM) | 14.3 mm | – | MIC [6]: 100 µg/mL (≈ 363 µM) |
| CCCCCCCC/C=C\CCCCCCCC(=O)Nc1ccccc1O | 100 µg/mL (≈ 268 µM) | 100 µg/mL (≈ 268 µM) | 50 µg/mL (≈ 134 µM) | 50 µg/mL (≈ 134 µM) | 100 µg/mL (≈ 268 µM) | 100 µg/mL (≈ 268 µM) | 100 µg/mL (≈ 268 µM) | 13.2 mm | 10.8 mm | 100 µg/mL (≈ 268 µM) | – | 11.4 mm | 11.1 mm | 15.3 mm | 11.7 mm | 9.2 mm | 8.9 mm | 50 µg/mL (≈ 134 µM) | 15.2 mm | 100 µg/mL (≈ 268 µM) | MFC [14]: 100 µg/mL (≈ 268 µM); MIC [14]: 25 µg/mL (≈ 66.9 µM); MFC [15]: 100 µg/mL (≈ 268 µM); MIC [15]: 50 µg/mL (≈ 134 µM); MFC [16]: 100 µg/mL (≈ 268 µM); MIC [16]: 50 µg/mL (≈ 134 µM) |

Continued, in another order:

| MIC [1] | MIC [2] | MIC [5] | MIC [13] | MIC [18] | Compound | MBC [1] | MBC [2] | diameter of the inhibition zone (DIZ) [3] | diameter of the inhibition zone (DIZ) [4] | MBC [5] | MBC [6] | diameter of the inhibition zone (DIZ) [7] | diameter of the inhibition zone (DIZ) [8] | diameter of the inhibition zone (DIZ) [9] | diameter of the inhibition zone (DIZ) [10] | diameter of the inhibition zone (DIZ) [11] | diameter of the inhibition zone (DIZ) [12] | MFC [13] | diameter of the inhibition zone (DIZ) [17] | MBC [18] | also measured |
| --- | --- | --- | --- | --- | --- | --- | --- | --- | --- | --- | --- | --- | --- | --- | --- | --- | --- | --- | --- | --- | --- |
| 50 µg/mL (≈ 108 µM) | 50 µg/mL (≈ 108 µM) | 50 µg/mL (≈ 108 µM) | 25 µg/mL (≈ 54 µM) | 25 µg/mL (≈ 54 µM) | CCCCCCCCCCCCCCCC(=O)N(C(=O)NC1CCCCC1)C1CCCCC1 | 100 µg/mL (≈ 216 µM) | 100 µg/mL (≈ 216 µM) | 12.3 mm | 10.7 mm | 100 µg/mL (≈ 216 µM) | 100 µg/mL (≈ 216 µM) | 11.2 mm | 10.1 mm | 14.2 mm | 12.5 mm | 9.9 mm | 10.7 mm | 50 µg/mL (≈ 108 µM) | 14.9 mm | 100 µg/mL (≈ 216 µM) | MIC [6]: 50 µg/mL (≈ 108 µM); MFC [14]: 100 µg/mL (≈ 216 µM); MIC [14]: 50 µg/mL (≈ 108 µM); MFC [15]: 100 µg/mL (≈ 216 µM); MIC [15]: 50 µg/mL (≈ 108 µM); MFC [16]: 25 µg/mL (≈ 54 µM); MIC [16]: 12.5 µg/mL (≈ 27 µM) |
| 50 µg/mL (≈ 102 µM) | 50 µg/mL (≈ 102 µM) | 50 µg/mL (≈ 102 µM) | 25 µg/mL (≈ 50.9 µM) | 25 µg/mL (≈ 50.9 µM) | CCCCCCCCCCCCCCCCCC(=O)N(C(=O)NC1CCCCC1)C1CCCCC1 | 100 µg/mL (≈ 204 µM) | 100 µg/mL (≈ 204 µM) | 13.3 mm | 12.7 mm | 100 µg/mL (≈ 204 µM) | 100 µg/mL (≈ 204 µM) | 11.5 mm | 11.3 mm | 15.1 mm | 13.6 mm | 10.5 mm | 12.2 mm | 50 µg/mL (≈ 102 µM) | 12.2 mm | 100 µg/mL (≈ 204 µM) | MIC [6]: 100 µg/mL (≈ 204 µM); MFC [14]: 100 µg/mL (≈ 204 µM); MIC [14]: 50 µg/mL (≈ 102 µM); MFC [15]: 100 µg/mL (≈ 204 µM); MIC [15]: 50 µg/mL (≈ 102 µM); MFC [16]: 100 µg/mL (≈ 204 µM); MIC [16]: 50 µg/mL (≈ 102 µM) |
| – | 100 µg/mL (≈ 256 µM) | – | 50 µg/mL (≈ 128 µM) | 50 µg/mL (≈ 128 µM) | C=CCCCCCCCCC(=O)N(C(=O)NC1CCCCC1)C1CCCCC1 | – | 100 µg/mL (≈ 256 µM) | 10.6 mm | – | – | – | – | – | 12.1 mm | – | – | – | 100 µg/mL (≈ 256 µM) | 12.1 mm | 100 µg/mL (≈ 256 µM) | – |
